# Test results from patent US20230085307A1, “PYRIDAZINONE COMPOUND AND HERBICIDE” (NISSAN CHEMICAL CORPORATION, priority 2019, published 2023).
# Assays:
# velvetleaf [1] = assay: Test Example 4: herbicidal effect by soil treatment (Table 19, symbol M); format: in vivo, velvetleaf (Abutilon theophrasti); settings: 320 g/ha
# Summary of the method: (§1)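 Scoring uses the grading scale of an earlier test, three weeks post-application. Treatment consists of spraying a diluted emulsion formulation across the surface of sterilized diluvial soil in which seeds are buried near 1.5 cm deep; boxes are kept in a greenhouse between 25° C. and 30° C.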
# Italian ryegrass = assay: Test Example 5: herbicidal effect by foliage application, plastic box (Table 20, symbol K); format: in vivo, Italian ryegrass (Lolium multiflorum); settings: foliage application, 320 g/ha; for effect on Italian ryegrass (K): 3 weeks after application
# Summary of the method: (§2)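 Post-emergence foliar test in sterilized diluvial soil. Compound applied as water-diluted emulsion at a predetermined rate to 14-day-old plants; evaluation at three weeks.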
# persian speedwell = assay: Test Example 4: herbicidal effect by soil treatment (Table 19, symbol R); format: in vivo, Persian speedwell (Veronica persica); settings: 320 g/ha
# Summary of the method: as §1
# oval-leafed pondweed = assay: Test Example 1: herbicidal activity, application before weed generation under submerged conditions (Table 16, symbol C); format: in vivo, oval-leafed pondweed (Monochoria vaginalis); settings: 320 g/ha applied herbicide
# Summary of the method: (§3)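 Emulsion formulation, water-diluted to set dose, was put onto the flooded surface (4 cm depth, alluvial soil) the same day weeds were sown and 2.5-leaf rice transplanted. After 3 weeks at 25-30 °C under glass, each species was rated 0 (≤5% kill) to 5 (≥90% kill).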
# velvetleaf [2] = assay: Test Example 5: herbicidal effect by foliage application, plastic box (Table 20, symbol M); format: in vivo, velvetleaf (Abutilon theophrasti); settings: foliage application, 320 g/ha; for effect on velvetleaf (M): 3 weeks after application
# Summary of the method: as §2
# late watergrass = assay: Test Example 2: herbicidal activity, application during weed generation under submerged conditions (Table 17, symbol A); format: in vivo, late watergrass (Echinochloa oryzicola); settings: AAH 320 g/ha; application during weed generation, submerged conditions
# Summary of the method: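 Alluvial soil in Wagner pots was flooded to 4 cm depth and sown with the three weeds together; pots were kept in a greenhouse at 25° C. to 30° C. At the one to two leaf stage, an emulsion formulation diluted in water to a set rate went onto the water surface; scored three weeks later.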
# lambsquarters [3] = assay: Test Example 5: herbicidal effect by foliage application, plastic box (Table 20, symbol O); format: in vivo, lambsquarters (Chenopodium album); settings: foliage application, 320 g/ha; for effect on lambsquarters (O): 3 weeks after application
# Summary of the method: as §2
# blackgrass = assay: Test Example 5: herbicidal effect by foliage application, plastic box (Table 20, symbol J); format: in vivo, blackgrass (Alopecurus myosuroides); settings: foliage application, 320 g/ha; for effect on blackgrass (J): 3 weeks after application
# Summary of the method: as §2
# barnyard grass [4] = assay: Test Example 3: herbicidal effect by foliage application, Wagner pot (Table 18, symbol H); format: in vivo, barnyard grass (Echinochloa crus-galli); settings: 320 g/ha
# Summary of the method: (§4)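 Plants were sown in alluvial soil held under 0.1–0.5 cm standing water and grown 14 days in a greenhouse at 25–30 °C. An emulsifiable formulation, water-diluted to the set dose, was then sprayed onto the foliage, and effects were scored three weeks later using previously defined criteria.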
# Japanese bulrush = assay: Test Example 1: herbicidal activity, application before weed generation under submerged conditions (Table 16, symbol B); format: in vivo, Japanese bulrush (Schoenoplectus juncoides); settings: 320 g/ha applied herbicide
# Summary of the method: as §3
# Chinese sprangletop = assay: Test Example 3: herbicidal effect by foliage application, Wagner pot (Table 18, symbol D); format: in vivo, chinese sprangletop (Leptochloa chinensis); settings: 320 g/ha
# Summary of the method: as §4
# windgrass = assay: Test Example 4: herbicidal effect by soil treatment (Table 19, symbol L); format: in vivo, windgrass (Apera spica-venti); settings: 320 g/ha
# Summary of the method: as §1
# barnyard grass [5] = assay: Test Example 4: herbicidal effect by soil treatment (Table 19, symbol H); format: in vivo, barnyard grass (Echinochloa crus-galli); settings: 320 g/ha
# Summary of the method: as §1
# redroot pigweed = assay: Test Example 5: herbicidal effect by foliage application, plastic box (Table 20, symbol N); format: in vivo, redroot pigweed (Amaranthus retroflexus); settings: foliage application, 320 g/ha, evaluated three weeks after application
# Summary of the method: as §2
# barnyard grass [6] = assay: Test Example 5: herbicidal effect by foliage application, plastic box (Table 20, symbol H); format: in vivo, barnyard grass (Echinochloa crus-galli); settings: foliage application, 320 g/ha; for effect on barnyard grass (H): 3 weeks after application
# Summary of the method: as §2
# lambsquarters [7] = assay: Test Example 4: herbicidal effect by soil treatment (Table 19, symbol O); format: in vivo, lambsquarters (Chenopodium album); settings: 320 g/ha
# Summary of the method: as §1
# [8] = evaluated three weeks after application
SMILES,"herbicidal effect rating, M: velvetleaf (velvetleaf [1])","herbicidal effect rating, R: persian speedwell (persian speedwell)",Herbicidal effect on C: oval-leafed pondweed (grade 0-5) (oval-leafed pondweed),"herbicidal effect rating, A: late watergrass (late watergrass)","herbicidal effect on H (barnyard grass), rating 0-5 (barnyard grass [4])",Herbicidal effect on B: Japanese bulrush (grade 0-5) (Japanese bulrush),"herbicidal effect on D (Chinese sprangletop), rating 0-5 (Chinese sprangletop)","herbicidal effect rating, L: windgrass (windgrass)","herbicidal effect rating, H: barnyard grass (barnyard grass [5])",effect on Italian ryegrass (K) (Italian ryegrass),effect on velvetleaf (M) (velvetleaf [2]),"herbicidal effect rating, O: lambsquarters (lambsquarters [7])",effect on lambsquarters (O) (lambsquarters [3]),effect on blackgrass (J) (blackgrass),effect on barnyard grass (H) (barnyard grass [6]),other results
C#CCOc1ccc(-c2sc3ccc(F)cc3c2-c2c(OCOCCOC)c(C)nn(C)c2=O)cc1 [2-055],3 (Herbicidal rate of 40% or more and less than 70%),5 (Herbicidal rate of 90% or more (almost completely withered)),1 (Herbicidal rate of 5% or more and less than 20%),0 (Herbicidal rate of 5% or less (almost no effect)),5 (Herbicidal rate of 90% or more (almost completely withered)),3 (Herbicidal rate of 40% or more and less than 70%),5 (Herbicidal rate of 90% or more (almost completely withered)),0 (Herbicidal rate of 5% or less (almost no effect)),3 (Herbicidal rate of 40% or more and less than 70%),–,–,–,–,–,–,herbicidal effect on K: Italian ryegrass (Italian ryegrass; [8]): 3 (Herbicidal rate of 40% or more and less than 70%); herbicidal effect on M: velvetleaf (velvetleaf [2]; [8]): 5 (Herbicidal rate of 90% or more (almost completely withered)); herbicidal effect on O: lambsquarters (lambsquarters [3]; [8]): 5 (Herbicidal rate of 90% or more (almost completely withered)); herbicidal effect on J: blackgrass (blackgrass; [8]): 3 (Herbicidal rate of 40% or more and less than 70%); herbicidal effect on N: redroot pigweed (redroot pigweed): 5 (Herbicidal rate of 90% or more (almost completely withered)); herbicidal effect on H: barnyard grass (barnyard grass [6]; [8]): 4 (Herbicidal rate of 70% or more and less than 90%)
CCCC(=O)Oc1c(C)nn(C)c(=O)c1-c1c(-c2ccc(OCC)cc2)sc2ccc(F)cc12 [2-031],3 (Herbicidal rate of 40% or more and less than 70%),4 (Herbicidal rate of 70% or more and less than 90%),4 (Herbicidal rate of 70% or more and less than 90%),4 (Herbicidal rate of 70% or more and less than 90%),5 (Herbicidal rate of 90% or more (almost completely withered)),4 (Herbicidal rate of 70% or more and less than 90%),4 (Herbicidal rate of 70% or more and less than 90%),0 (Herbicidal rate of 5% or less (almost no effect)),3 (Herbicidal rate of 40% or more and less than 70%),0 (Herbicidal rate of 5% or less (almost no effect)),5 (Herbicidal rate of 90% or more (almost completely withered)),4 (Herbicidal rate of 70% or more and less than 90%),5 (Herbicidal rate of 90% or more (almost completely withered)),0 (Herbicidal rate of 5% or less (almost no effect)),4 (Herbicidal rate of 70% or more and less than 90%),–
COCc1ccc(-c2sc3ccc(F)cc3c2-c2c(O)c(C)nn(C)c2=O)cc1 [2-022],4 (Herbicidal rate of 70% or more and less than 90%),5 (Herbicidal rate of 90% or more (almost completely withered)),5 (Herbicidal rate of 90% or more (almost completely withered)),2 (Herbicidal rate of 20% or more and less than 40%),5 (Herbicidal rate of 90% or more (almost completely withered)),5 (Herbicidal rate of 90% or more (almost completely withered)),4 (Herbicidal rate of 70% or more and less than 90%),5 (Herbicidal rate of 90% or more (almost completely withered)),5 (Herbicidal rate of 90% or more (almost completely withered)),5 (Herbicidal rate of 90% or more (almost completely withered)),5 (Herbicidal rate of 90% or more (almost completely withered)),4 (Herbicidal rate of 70% or more and less than 90%),4 (Herbicidal rate of 70% or more and less than 90%),4 (Herbicidal rate of 70% or more and less than 90%),5 (Herbicidal rate of 90% or more (almost completely withered)),–
Cc1nn(C)c(=O)c(-c2c(-c3ccc(OC4CCCC4)cc3)sc3ccc(F)cc23)c1O [2-039],0 (Herbicidal rate of 5% or less (almost no effect)),4 (Herbicidal rate of 70% or more and less than 90%),5 (Herbicidal rate of 90% or more (almost completely withered)),0 (Herbicidal rate of 5% or less (almost no effect)),5 (Herbicidal rate of 90% or more (almost completely withered)),4 (Herbicidal rate of 70% or more and less than 90%),5 (Herbicidal rate of 90% or more (almost completely withered)),0 (Herbicidal rate of 5% or less (almost no effect)),0 (Herbicidal rate of 5% or less (almost no effect)),1 (Herbicidal rate of 5% or more and less than 20%),3 (Herbicidal rate of 40% or more and less than 70%),0 (Herbicidal rate of 5% or less (almost no effect)),5 (Herbicidal rate of 90% or more (almost completely withered)),1 (Herbicidal rate of 5% or more and less than 20%),5 (Herbicidal rate of 90% or more (almost completely withered)),–
CCCCOc1ccc(-c2sc3ccc(F)cc3c2-c2c(OC(=O)CCC)c(C)nn(C)c2=O)cc1 [2-037],4 (Herbicidal rate of 70% or more and less than 90%),3 (Herbicidal rate of 40% or more and less than 70%),3 (Herbicidal rate of 40% or more and less than 70%),0 (Herbicidal rate of 5% or less (almost no effect)),4 (Herbicidal rate of 70% or more and less than 90%),2 (Herbicidal rate of 20% or more and less than 40%),2 (Herbicidal rate of 20% or more and less than 40%),0 (Herbicidal rate of 5% or less (almost no effect)),0 (Herbicidal rate of 5% or less (almost no effect)),0 (Herbicidal rate of 5% or less (almost no effect)),5 (Herbicidal rate of 90% or more (almost completely withered)),2 (Herbicidal rate of 20% or more and less than 40%),4 (Herbicidal rate of 70% or more and less than 90%),0 (Herbicidal rate of 5% or less (almost no effect)),2 (Herbicidal rate of 20% or more and less than 40%),–
